{
  "source": "patent US20250049777A1",
  "about": "“PHARMACEUTICALLY ACCEPTABLE SALT AND CRYSTALLINE FORM OF GLP-1 RECEPTOR AGONIST AND PREPARATION METHOD THEREFOR” (JIANGSU HENGRUI PHARMACEUTICALS CO., LTD., priority 2021, published 2025)",
  "key": {"[1]": {"assay": "Hygroscopicity of crystal forms of salts (DVS, 25° C.)", "format": "physicochemical", "description": "According to the description of hygroscopic characteristics and the definition of hygroscopic weight gain in “9103 Guidelines for Hygroscopicity of Pharmaceuticals”, Chinese Pharmacopoeia, Volume IV, 2015 edition, the following are defined: • deliquescent: absorbing enough water to form a liquid; • extremely hygroscopic: having a hygroscopic weight gain of not less than 15%; • hygroscopic: having a hygroscopic weight gain of less than 15% and not less than 2%; • slightly hygroscopic: having a hygroscopic weight gain of less than 2% and not less than 0.2%; and • no or almost no hygroscopicity: having a hygroscopic weight gain of less than 0.2%.\nSurface Measurement Systems intrinsic DVS was used at 25° C. The observed humidity ranged from 0% to 95%. The step was 10%. The criterion was that the mass change dM/dT for each step was less than 0.002%. TMAX was 360 min. Two cycles were carried out."}, "[2]": {"assay": "Stability of crystal forms of salts under influencing factors (illumination, high temperature, high humidity)", "format": "physicochemical", "description": "The sampling and investigation period was 30 days."}, "[3]": {"format": "physicochemical", "conditions": "for Crystal form: sealed aluminum foil bag", "method": "A salt-type sample was sealed with an aluminum foil bag and placed under the conditions of 25° C./60% RH and 40° C./75% RH, respectively, to investigate the stability."}, "[4]": {"conditions": "Illumination (4500 Lux), 5 days, open"}, "[5]": {"conditions": "Illumination (4500 Lux), 10 days, open"}, "[6]": {"conditions": "Illumination (4500 Lux), 30 days, open"}},
  "note": "Structures can show the parent of a compound that is named as a salt. Where two headings read alike, the source gives them in different places.",
  "data": [
    {"smiles": "O=C(O)c1ccc2nc(CN3CCC(c4cccc5c4O[C@@H](c4ccc(Cl)cc4F)CO5)CC3)n(C[C@@H]3CCO3)c2c1", "note": "[Crystal form I of tartrate salt, 2-((4-((S)-3-(4-chloro-2-fluorophenyl)-2,3-dihydrobenzo[b][1,4]dioxan-5-yl)piperidin-1-yl)methyl)-1-(((S)-oxetan-2-yl)methyl)-1H-benzo[d]imidazole-6-carboxylic acid]", "values": [
      {"measurement": "hygroscopic weight gain 0.0% RH to 80.0% RH", "setting": "[1]", "result": 1.44, "unit": "%"},
      {"measurement": "Crystal form after DVS", "setting": "[1]; 0% to 95% RH", "result": "Unchanged"},
      {"measurement": "% Purity", "setting": "[2]; 40° C., 5 days, open", "result": 98.4, "unit": "%"},
      {"measurement": "Crystal form", "setting": "[2]; 40° C., 5 days, open", "result": "Unchanged"},
      {"measurement": "% Purity", "setting": "[2]; 40° C., 10 days, open", "result": 98.1, "unit": "%"},
      {"measurement": "Crystal form", "setting": "[2]; 40° C., 10 days, open", "result": "Unchanged"},
      {"measurement": "% Purity", "setting": "[2]; 40° C., 30 days, open", "result": 97.6, "unit": "%"},
      {"measurement": "Crystal form", "setting": "[2]; 40° C., 30 days, open", "result": "Unchanged"},
      {"measurement": "% Purity", "setting": "[2]; 60° C., 5 days, open", "result": 97.9, "unit": "%"},
      {"measurement": "Crystal form", "setting": "[2]; 60° C., 5 days, open", "result": "Unchanged"},
      {"measurement": "% Purity", "setting": "[2]; 60° C., 10 days, open", "result": 97.2, "unit": "%"},
      {"measurement": "Crystal form", "setting": "[2]; 60° C., 10 days, open", "result": "Unchanged"},
      {"measurement": "% Purity", "setting": "[2]; 60° C., 30 days, open", "result": 96.4, "unit": "%"},
      {"measurement": "Crystal form", "setting": "[2]; 60° C., 30 days, open", "result": "Unchanged"},
      {"measurement": "% Purity", "setting": "[2]; 75% RH, 5 days, open", "result": 98.6, "unit": "%"},
      {"measurement": "Crystal form", "setting": "[2]; 75% RH, 5 days, open", "result": "Unchanged"},
      {"measurement": "% Purity", "setting": "[2]; 75% RH, 10 days, open", "result": 98.6, "unit": "%"},
      {"measurement": "Crystal form", "setting": "[2]; 75% RH, 10 days, open", "result": "Unchanged"},
      {"measurement": "% Purity", "setting": "[2]; 75% RH, 30 days, open", "result": 98.4, "unit": "%"},
      {"measurement": "Crystal form", "setting": "[2]; 75% RH, 30 days, open", "result": "Unchanged"},
      {"measurement": "% Purity", "setting": "[2]; 92.5% RH, 5 days, open", "result": 98.7, "unit": "%"},
      {"measurement": "Crystal form", "setting": "[2]; 92.5% RH, 5 days, open", "result": "Unchanged"},
      {"measurement": "% Purity", "setting": "[2]; 92.5% RH, 10 days, open", "result": 98.6, "unit": "%"},
      {"measurement": "Crystal form", "setting": "[2]; 92.5% RH, 10 days, open", "result": "Unchanged"},
      {"measurement": "% Purity", "setting": "[2]; 92.5% RH, 30 days, open", "result": 98.3, "unit": "%"},
      {"measurement": "Crystal form", "setting": "[2]; 92.5% RH, 30 days, open", "result": "Unchanged"},
      {"measurement": "% Purity", "setting": "[2]; [4]", "result": 98.7, "unit": "%"},
      {"measurement": "Crystal form", "setting": "[2]; [4]", "result": "Unchanged"},
      {"measurement": "% Purity", "setting": "[2]; [5]", "result": 98.6, "unit": "%"},
      {"measurement": "Crystal form", "setting": "[2]; [5]", "result": "Unchanged"},
      {"measurement": "% Purity", "setting": "[2]; [6]", "result": 98.3, "unit": "%"},
      {"measurement": "Crystal form", "setting": "[2]; [6]", "result": "Unchanged"},
      {"measurement": "% Purity", "setting": "[2]; Initial condition, 0 days", "result": 98.8, "unit": "%"},
      {"measurement": "physical and chemical stability", "setting": "[3]", "result": "good physical and chemical stability"},
      {"measurement": "Crystal form", "setting": "[3]; 25° C./60% RH", "result": "Unchanged"},
      {"measurement": "Crystal form", "setting": "[3]; 40° C./75% RH", "result": "Unchanged"},
      {"measurement": "% Purity", "setting": "[3]; Initial condition", "result": 98.8, "unit": "%"}
    ]}
  ]
}
